Patent US20240166612A1, “ARYLTHIOETHER ACETAMIDE AND RELATED COMPOUNDS AND THEIR USE IN TREATING MEDICAL CONDITIONS” (X-Biotix Therapeutics, Inc., priority 2021, published 2024)
In brackets after ≈: the same amount, converted by molar mass.

Columns and labels:
[1] = system: P. aeruginosa PAO1 ΔmexABoprM; assay: Broth microdilution MIC, P. aeruginosa PAO1 ΔmexABoprM; format: cell-based; settings: Pseudomonas aeruginosa, PAO1, 18 h, read-out: PAO1 KO MIC
Experimental: (§1) Exemplary compounds from the above Examples were tested to determine their minimum inhibitory concentration (MIC) for exemplary strains of Escherichia and Pseudomonas bacteria using broth microdilution methods. Assay procedures and results are described below.
(§2) Broth microdilution assays were conducted according to Clinical and Laboratory Standards Institute guidelines (CLSI, M07-A^11: Clinical and Laboratory Standards Institute. Methods for Dilution Antimicrobial Susceptibility Tests for Bacteria that Grow Aerobically; Approved Standard-11th Edition. Wayne, PA: CLSI, 2018). Briefly, bacterial suspensions were adjusted to a density equivalent to a 0.5 McFarland standard and diluted in sterile, cation-adjusted Mueller-Hinton broth (Beckton Dickinson) to yield a final inoculum between 2×10^5 and 8×10^5 colony-forming units (CFU)/mL. An inoculum volume of 98 μL was added to wells containing 2 μL of 2-fold serial dilutions of drug (prepared in DMSO). All inoculated microdilution trays were incubated in ambient air at 37° C. for 18 h. […] Performance of the assay was monitored by the use of laboratory quality-control strains (S. aureus ATCC 29213 and P. aeruginosa ATCC 27853) and levofloxacin, a compound with a defined MIC spectrum, in accordance with CLSI guidelines (CLSI, M100Ed29: Clinical and Laboratory Standards Institute. Performance Standards for Antimicrobial Susceptibility Testing, 29th Edition. Wayne, PA: CLSI, 2018).
(§3) Multiple enterobacteriaceae strains were tested, including both wild-type strains and multi-drug resistance pump deficient mutants. Specific strains tested included the following: • Wild-type P. aeruginosa PAO1, • P. aeruginosa PAO1 ΔmexABoprM—Disabled multi-drug efflux system Δ(MexAB-OprM), • P. aeruginosa PAO397—PAO1Δ(mexAB-oprM) Δ(mexCD-oprJ) Δ(mexEF-oprN) Δ(mexJK) Δ(mexXY) ΔopmH, • P. aeruginosa LESB58—Clinical isolate; colistin-resistant, isolated in the United Kingdom in 1988 from a patient with cystic fibrosis • E. coli JW0452-3 (BW25113 JacrA::kan)—Disabled multi-drug efflux system (AcrAB-TolC).
(§4) Experimental results are provided in Table 11, which provides MIC values for wild-type P. aeruginosa PAO1 (“PAO1 WT MIC”), P. aeruginosa PAO ΔmexABoprM (“PAO1 KO MIC”), P. aeruginosa PAO397 (“PAO397 KO MIC”), P. aeruginosa LESB58 (“LESB58”), and E. coli JW0452-3 (BW25113 JacrA::kan) (“E. coli KO MIC”).

[2] = system: Wild-type P. aeruginosa PAO1; assay: Broth microdilution MIC, wild-type P. aeruginosa PAO1; format: cell-based; settings: Pseudomonas aeruginosa; wild-type P. aeruginosa PAO1, 37° C., 18 h; read-out: PAO1 WT MIC
Experimental: as §1, §2, §3, §4

P. aeruginosa PAO397 = assay: Broth microdilution MIC, P. aeruginosa PAO397; format: cell-based; settings: Pseudomonas aeruginosa, PAO397, 18 h, read-out: PAO397 KO MIC
Experimental: as §1, §2, §3, §4

P. aeruginosa LESB58 = assay: Broth microdilution MIC, P. aeruginosa LESB58; format: cell-based; settings: Pseudomonas aeruginosa; P. aeruginosa LESB58 clinical isolate, colistin-resistant, 37° C., 18 h
Experimental: as §1, §2, §3, §4

[3] = biological target: T1, recombinant LpxA enzyme (P. aeruginosa) (Pseudomonas aeruginosa, UniProt Q9X6P4); assay: LpxA in vitro substrate acylation assay with RapidFire MS analysis (P. aeruginosa); format: biochemical; settings: P. aeruginosa enzyme 0.5 nM, PaACP-C10, 30 min
T1 sequence (Q9X6P4 1-258): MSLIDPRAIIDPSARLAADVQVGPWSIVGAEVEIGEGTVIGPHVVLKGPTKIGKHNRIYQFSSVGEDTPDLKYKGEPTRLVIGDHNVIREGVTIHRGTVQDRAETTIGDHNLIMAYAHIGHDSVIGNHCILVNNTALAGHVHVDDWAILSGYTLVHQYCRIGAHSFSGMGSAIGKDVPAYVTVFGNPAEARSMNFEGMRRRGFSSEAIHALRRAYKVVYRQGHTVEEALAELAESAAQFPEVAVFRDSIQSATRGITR
Experimental: Exemplary compounds from the above Examples were tested for ability to inhibit LpxA activity using an in vitro substrate acylation assay with RapidFire™ MS analysis. Assay procedures and results are described below.
Reactions were carried out in a final volume of 30 μL with 25 mM HEPES (pH 7.3), 150 mM NaCl, 2 mM DTT, 0.01% BSA, 5 μM UDP-GlcNac, recombinant LpxA enzyme (0.5 nM P. aeruginosa or 1.0 nM E. coli, both produced at Evotec), 0.5 μM acyl-transfer reagent (decanoyl P. aeruginosa acyl-carrier protein [PaACP-C10] or myristoyl E. coli acyl-carrier protein [EcACP-C1-4], both produced at Evotec), and 1% DMSO containing test compound. After 30 min incubation at room temperature, reactions were stopped by addition of 30 μL of 10% TCA in water.
Samples were centrifuged (4350 rpm, 4° C., 5 min), and then subjected to RapidFire™ MS analysis on an Agilent RapidFire 300 coupled to an Agilent 6460 triple-quadrupole mass spectrometer. Analytes were retained on a C4 (type A) cartridge using the following solvents and flow rates: • Pump 1—H2O with 5 mM NH4OAc at 2.0 mL/min, • Pump 2—MeOH/H2O (90/10) at 1.5 mL/min, • Pump 3—MeOH/H2O (90/10) at 0.5 mL/min, and • Pump 4—ACN (organic)/H2O (aqueous). Substrate and product of the reaction were detected in negative mode ESI-MS/MS by MRM (multiple reaction monitoring) of transitions 606.0/385.0 (UDP-GlcNAc substrate) and 776.2/385.0 (UDP-3-O—(R-3-hydroxydecanoyl)-GlcNAc product, for P. aeruginosa LpxA assay) or 832.2/385.0 (UDP-3-O—(R-3-hydroxymyristoyl)-GlcNAc product, for E. coli LpxA assay).
For IC50 determinations, peak areas of the substrate and product were compared to compute the proportion of product formed by the LpxA enzyme at each compound concentration.

Structure (SMILES)	MIC [1] [µg/mL]	MIC [2] [µg/mL]	MIC (P. aeruginosa PAO397) [µg/mL]	MIC (P. aeruginosa LESB58) [µg/mL]	IC50 [3] [nM]
CCc1ccccc1SCC(=O)N(Cc1ccc(C#N)cc1)Cc1nnc(N)o1 [Compound No. 10]	1 to 16 (≈ 2.45 to 39.3 µM)	> 64	< 1	–	–
N#Cc1ccc(CN(Cc2nnc(N)o2)C(=O)COc2cc(F)cc(F)c2Cl)cn1 [Compound No. 18, N-((5-amino-1,3,4-oxadiazol-2-yl)methyl)-2-(2-chloro-3,5-difluorophenoxy)-N-((6-cyanopyridin-3-yl)methyl)acetamide]	1 to 16 (≈ 2.3 to 36.8 µM)	> 64	1 to 16 (≈ 2.3 to 36.8 µM)	> 64	–
Cc1nnc(CN(Cc2ccc(C#N)cc2)C(=O)CSc2ccccc2Cl)o1 [Compound No. 65, 2-(2-Chlorophenyl)sulfanyl-N-[(4-cyanophenyl)methyl]-N-[(5-methyl-1,3,4-oxadiazol-2-yl)methyl]acetamide]	> 64	> 64	1 to 16 (≈ 2.42 to 38.8 µM)	–	–
N#Cc1ccc(CN(Cc2nnc(O)o2)C(=O)CSc2ccccc2Cl)cc1 [Compound No. 66, 2-(2-Chlorophenyl)sulfanyl-N-[(4-cyanophenyl)methyl]-N-[(5-hydroxy-1,3,4-oxadiazol-2-yl)methyl]acetamide]	1 to 16 (≈ 2.41 to 38.6 µM)	> 64	< 1	–	–
N#Cc1ccc(CN(Cc2nnc(CN)o2)C(=O)CSc2ccccc2Cl)cc1 [Compound No. 67, N-[[5-(Aminomethyl)-1,3,4-oxadiazol-2-yl]methyl]-2-(2-chlorophenyl)sulfanyl-N-[(4-cyanophenyl)methyl]acetamide]	16 to 64 (≈ 37.4 to 150 µM)	> 64	1 to 16 (≈ 2.34 to 37.4 µM)	–	–
N#Cc1ccc(CN(Cc2nnc(N)s2)C(=O)CSc2ccccc2Cl)cc1 [Compound No. 69, N-[(5-Amino-1,3,4-thiadiazol-2-yl)methyl]-2-(2-chlorophenyl)sulfanyl-N-[(4-cyanophenyl)methyl]acetamide]	1 to 16 (≈ 2.33 to 37.2 µM)	> 64	1 to 16 (≈ 2.33 to 37.2 µM)	–	–
N#Cc1ccc(CN(Cc2nnc(N)o2)C(=O)CSc2ncccc2Cl)cn1 [compound 12]	1 to 16 (≈ 2.4 to 38.5 µM)	> 64	< 1	–	–
Nc1nnc(CN(Cc2ccc(=O)[nH]c2)C(=O)CSc2ccccc2Cl)o1 [compound 29]	> 64	> 64	1 to 16 (≈ 2.46 to 39.4 µM)	–	–
CCc1ccccc1OCC(=O)N(Cc1ccc(C#N)cc1)Cc1nnc(N)o1 [compound 32]	1 to 16 (≈ 2.55 to 40.9 µM)	> 64	< 1	–	–
N#Cc1ccc(CN(Cc2nnc(N)o2)C(=O)COc2cccc(Cl)c2Cl)c(F)c1 [compound 34]	16 to 64 (≈ 35.5 to 142 µM)	> 64	< 1	–	–
N#Cc1ccc(CN(Cc2c[nH]cn2)C(=O)CSc2ccccc2Cl)cc1 [compound 43]	> 64	> 64	1 to 16 (≈ 2.52 to 40.3 µM)	–	–
Nc1nnc(CN(Cc2ccc(S(N)(=O)=O)cc2)C(=O)CSc2ccccc2Cl)o1 [compound 47]	16 to 64 (≈ 34.2 to 137 µM)	> 64	< 1	–	–
Cc1cnc(CN(Cc2ccc(C#N)cc2)C(=O)CSc2ccccc2Cl)o1 [compound 72]	–	> 64	1 to 16 (≈ 2.43 to 38.8 µM)	–	100 to 1000
[2H]C([2H])(Oc1cc(F)cc(F)c1C([2H])([2H])C([2H])([2H])[2H])C(=O)N(Cc1nnc(N)o1)Cc1ccc([N+](=O)[O-])cc1F [compound 78]	–	1 to 16 (≈ 2.12 to 33.9 µM)	–	1 to 16 (≈ 2.12 to 33.9 µM)	< 20
CCc1c(F)cc(F)cc1OCC(=O)N(Cc1ccc2c(c1)CC(=O)N2)Cc1nnc(N)o1 [compound 83]	–	> 64	–	16 to 64 (≈ 35 to 140 µM)	< 20
Nc1nnc(CN(Cc2ccc([N+](=O)[O-])cc2)C(=O)COc2cc(F)cc(F)c2C2CC2)o1 [compound 84]	–	16 to 64 (≈ 34.8 to 139 µM)	–	1 to 16 (≈ 2.18 to 34.8 µM)	< 20
Nc1nnc(CN(Cc2ccc([N+](=O)[O-])cc2F)C(=O)COc2cc(F)cc(F)c2C2CC2)o1 [compound 86]	–	16 to 64 (≈ 33.5 to 134 µM)	–	1 to 16 (≈ 2.09 to 33.5 µM)	< 20
Nc1nnc(CN(Cc2ccc([N+](=O)[O-])nc2)C(=O)COc2cc(F)cc(F)c2C2CC2)o1 [compound 87]	–	> 64	–	> 64	20 to 100
[2H]C([2H])(Oc1ccccc1C([2H])([2H])C([2H])([2H])[2H])C(=O)N(Cc1ccc(C#N)nc1)Cc1nnc(N)o1 [compound 88]	–	> 64	–	> 64	20 to 100
Nc1nnc(CN(Cc2csc([N+](=O)[O-])c2)C(=O)COc2cc(F)cc(F)c2C2CC2)o1 [compound 89]	–	> 64	–	> 64	20 to 100
[2H]C([2H])(Oc1ccccc1C([2H])([2H])C([2H])([2H])[2H])C(=O)N(Cc1nnc(N)o1)Cc1ccc([N+](=O)[O-])cc1F [compound 92]	–	> 64	–	16 to 64 (≈ 36.7 to 147 µM)	20 to 100
[2H]C([2H])(Oc1ccccc1C([2H])([2H])C([2H])([2H])[2H])C(=O)N(Cc1ccc([N+](=O)[O-])cc1)Cc1nnc(N)o1 [compound 93]	–	> 64	–	> 64	20 to 100
CCc1c(F)cc(F)cc1OCC(=O)N(Cc1ccc([N+](=O)[O-])cc1)Cc1nnc(N)o1 [compound 95]	–	16 to 64 (≈ 35.8 to 143 µM)	–	1 to 16 (≈ 2.24 to 35.8 µM)	< 20
N#Cc1ccc(CN(Cc2nnc(N)o2)C(=O)COc2cc(F)cc(F)c2Br)c(F)c1 [compound 96]	–	16 to 64 (≈ 32.2 to 129 µM)	–	1 to 16 (≈ 2.02 to 32.2 µM)	< 20
N#Cc1ccc(CN(Cc2nnc(N)o2)C(=O)c2cc3cccc(Cl)c3s2)c(F)c1 [compound 97]	–	> 64	–	> 64	> 1000
N#Cc1ccc(CN(CC(=O)N2CCOC[C@@H]2CN)C(=O)CSc2cc(F)cc(F)c2Cl)c(F)c1 [compound 106]	–	> 64	–	> 64	> 1000
N#Cc1ccc(CN(CC(=O)N[C@@H](CN)C(=O)O)C(=O)CSc2cc(F)cc(F)c2Cl)c(F)c1 [compound 107]	–	> 64	–	> 64	100 to 1000
CCc1cccc(OCC(=O)N(Cc2nnc(N)o2)Cc2ccc(C#N)cc2F)c1 [compound 110]	–	> 64	–	> 64	100 to 1000
N#Cc1ccc(CN(Cc2nnc(O)o2)C(=O)CSc2cc(OCCN)ccc2Cl)c(F)c1 [compound 116]	–	> 64	–	> 64	> 1000
